# Source: patent publication US7598245B2 (Vertex Pharmaceuticals Incorporated, priority 2003, dated 2009)
# Columns and labels:
# c-KIT = target: T1, c-KIT (Homo sapiens, UniProt P10721); test: Inhibition of c-KIT, radiometric filter-binding assay; format: biochemical; conditions: 700 μM ATP, pE4Y substrate
# T1 construct: 0.02% BSA and 25 nM c-KIT
# Experimental: Compounds are screened for their ability to inhibit c-KIT activity using a radiometric filter-binding assay. This assay monitors the ^33P incorporation into a substrate poly(Glu, Tyr) 4:1 (pE4Y). Reactions are carried out in a solution containing 100 mM HEPES (pH 7.5), 10 mM MgCl2, 25 mM NaCl, 1 mM DTT, 0.01% BSA and 2.5% DMSO. Final substrate concentrations in the assay were 700 μM ATP and 0.5 mg/mL pE4Y (both from Sigma Chemicals, St Louis, Mo.). The final concentration of compounds is generally between 0.01 and 5 μM. Typically, a 12-point titration is conducted by preparing serial dilutions from 10 mM DMSO stock of test compound. Reactions were carried out at room temperature.
# Two assay solutions are prepared. Solution 1 contains 100 mM HEPES (pH 7.5), 10 mM MgCl2, 25 mM NaCl, 1 mg/ml pE4Y and 1.4 mM ATP (containing 0.5 μCi of [γ-^33P]ATP for each reaction). Solution 2 contains 100 mM HEPES (pH 7.5), 10 mM MgCl2, 25 mM NaCl, 2 mM DTT, 0.02% BSA and 25 nM c-KIT. The assay is run on a 96 well plate by mixing 33 μL of Solution1 and 1.65 μL of the test compounds. The reaction is initiated with 33 μL of Solution2. After incubation for 20 minutes at room temperature, the reaction was stopped with 50 μL of 10% TCA containing 0.2 mM of ATP. All of the reaction volume is then transferred to a filter plate and washed with 5% TCA by a Harvester9600 from TOMTEC (Hamden, Conn.). The amount of ^33P incorporation into pE4y is analyzed by a Packard TopCount Microplate Scintillation Counter (Meriden, Conn.). The data is fitted using Prism software to get an IC50 or Ki.
# human Src kinase = target: T2, human Src kinase (Homo sapiens, UniProt P12931); test: Src inhibition assay B: spectrophotometric (uv-vis) coupled enzyme assay; format: biochemical; conditions: 100 μM ATP
# T2 construct: 25 nM of recombinant human Src kinase
# Experimental: The compounds are evaluated as inhibitors of human Src kinase using either a radioactivity-based assay or spectrophotometric assay.
# Src Inhibition Assay B: Spectrophotometric Assay
# The ADP produced from ATP by the human recombinant Src kinase-catalyzed phosphorylation of poly Glu-Tyr substrate is quantified using a coupled enzyme assay [Fox et al. Protein Sci. 1998, 7, 2249]. In this assay one molecule of NADH is oxidised to NAD for every molecule of ADP produced in the kinase reaction. The disappearance of NADH is conveniently followed at 340 nm.
# The following are the final concentrations of the assay components: 0.025 M HEPES (pH 7.6), 10 mM MgCl2, 2 mM DTT, 0.25 mg/ml poly Glu-Tyr, and 25 nM of recombinant human Src kinase. Final concentrations of the components of the coupled enzyme system are 2.5 mM phosphoenolpyruvate, 200 μM NADH, 30 μg/ml pyruvate kinase and 10 μg/ml lactate dehydrogenase.
# In a typical assay, all the reaction components with the exception of ATP are pre-mixed and aliquoted into assay plate wells. Inhibitors dissolved in DMSO are added to the wells to give a final DMSO concentration of 2.5%. The assay plate is incubated at 30° C. for 10 min before initiating the reaction with 100 μM ATP. The absorbance change at 340 nm with time, the rate of the reaction, is monitored on a molecular devices plate reader. The data of rate as a function of the inhibitor concentration is fitted to competitive inhibition kinetics model to get the Ki for the compound.
# T2 sequence (P12931 whole entry): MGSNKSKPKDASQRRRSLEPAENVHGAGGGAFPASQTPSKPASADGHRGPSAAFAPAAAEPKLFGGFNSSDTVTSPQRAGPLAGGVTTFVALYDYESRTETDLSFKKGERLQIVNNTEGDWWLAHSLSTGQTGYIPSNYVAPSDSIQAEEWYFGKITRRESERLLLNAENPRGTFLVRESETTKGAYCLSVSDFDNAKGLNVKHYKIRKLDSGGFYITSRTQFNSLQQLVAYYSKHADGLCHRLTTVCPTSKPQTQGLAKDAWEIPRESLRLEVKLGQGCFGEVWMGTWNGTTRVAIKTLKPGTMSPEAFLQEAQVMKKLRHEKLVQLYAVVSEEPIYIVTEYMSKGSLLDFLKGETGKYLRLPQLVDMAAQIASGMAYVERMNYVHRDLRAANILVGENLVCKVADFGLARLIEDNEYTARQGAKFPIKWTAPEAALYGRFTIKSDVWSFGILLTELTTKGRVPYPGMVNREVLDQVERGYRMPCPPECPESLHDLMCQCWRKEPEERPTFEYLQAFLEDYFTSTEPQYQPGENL
# T1 sequence (P10721 26-976): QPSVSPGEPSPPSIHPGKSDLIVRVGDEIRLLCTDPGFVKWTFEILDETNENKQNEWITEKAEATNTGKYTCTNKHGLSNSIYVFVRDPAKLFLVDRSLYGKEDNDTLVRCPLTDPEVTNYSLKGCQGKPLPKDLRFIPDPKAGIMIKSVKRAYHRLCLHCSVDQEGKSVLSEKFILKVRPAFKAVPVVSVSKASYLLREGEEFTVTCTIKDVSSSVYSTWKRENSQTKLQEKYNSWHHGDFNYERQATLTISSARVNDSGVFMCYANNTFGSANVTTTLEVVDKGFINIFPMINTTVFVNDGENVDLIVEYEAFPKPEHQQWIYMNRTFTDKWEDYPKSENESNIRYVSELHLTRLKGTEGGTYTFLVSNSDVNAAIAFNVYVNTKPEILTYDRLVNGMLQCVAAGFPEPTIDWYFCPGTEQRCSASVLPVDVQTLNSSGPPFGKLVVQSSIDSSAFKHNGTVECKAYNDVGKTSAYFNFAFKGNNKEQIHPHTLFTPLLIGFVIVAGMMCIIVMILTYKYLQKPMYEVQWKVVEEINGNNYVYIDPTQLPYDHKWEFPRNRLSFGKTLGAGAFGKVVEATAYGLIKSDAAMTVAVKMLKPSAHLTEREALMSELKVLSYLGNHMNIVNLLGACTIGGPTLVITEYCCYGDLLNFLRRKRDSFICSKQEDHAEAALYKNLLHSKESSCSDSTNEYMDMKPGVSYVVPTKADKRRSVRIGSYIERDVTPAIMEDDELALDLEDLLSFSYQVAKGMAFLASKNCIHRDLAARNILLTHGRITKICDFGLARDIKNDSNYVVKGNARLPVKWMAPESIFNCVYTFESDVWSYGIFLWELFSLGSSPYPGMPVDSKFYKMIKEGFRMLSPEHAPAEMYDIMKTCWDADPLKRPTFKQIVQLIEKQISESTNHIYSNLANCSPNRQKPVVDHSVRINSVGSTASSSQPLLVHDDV
Ki (c-KIT),Ki (human Src kinase),Compound
,500 to 1000 nM,O=C(Nc1cc(-n2cnc(Nc3ccccc3)n2)ccn1)C1CCCCC1 [Compound I-93]
,< 500 nM,"O=C(CC1CCCC1)Nc1cc(-n2cnc(Nc3ccccc3)n2)ccn1 [Compound I-94, 2-Cyclopentyl-N-[4-(3-phenylamino-[1,2,4]triazol-1-yl)-pyridin-2-yl]-acetamide]"
,< 500 nM,O=C(CCc1ccccc1)Nc1cc(-n2cnc(Nc3ccccc3)n2)ccn1 [Compound I-95]
,< 500 nM,O=C(Cc1ccccc1)Nc1cc(-n2cnc(Nc3ccccc3)n2)ccn1 [Compound I-96]
50 to 500 nM,< 500 nM,"CC(=O)N1[C@H](C)CN(c2cc(-n3cnc(Nc4ccc(N5CCN(C(=O)OC(C)(C)C)CC5)cc4)n3)ccn2)C[C@@H]1C [Compound I-97, 4-(4-{1-[2-(4-Acetyl-3,5-dimethyl-piperazin-1-yl)-pyridin-4-yl]-1H-[1,2,4]triazol-3-ylamino}-phenyl)-piperazine-1-carboxylic acid tert-butyl ester]"
50 to 500 nM,< 500 nM,"CCNC(=O)Nc1ccc(Nc2ncn(-c3ccnc(N4C[C@@H](C)N(C(C)=O)[C@@H](C)C4)c3)n2)cc1 [Compound I-98, 1-(4-{1-[2-(4-Acetyl-3,5-dimethyl-piperazin-1-yl)-pyridin-4-yl]-1H-[1,2,4]triazol-3-ylamino}-phenyl)-3-ethyl-urea]"
50 to 500 nM,< 500 nM,CCCNC(=O)Nc1ccc(Nc2ncn(-c3ccnc(N4C[C@@H](C)N(C(C)=O)[C@@H](C)C4)c3)n2)cc1 [Compound I-99]
50 to 500 nM,< 500 nM,CC(=O)N1[C@H](C)CN(c2cc(-n3cnc(Nc4ccc(NC(=O)NC(C)C)cc4)n3)ccn2)C[C@@H]1C [Compound I-100]
50 to 500 nM,500 to 1000 nM,CC(=O)N1[C@H](C)CN(c2cc(-n3cnc(Nc4ccc(NC(=O)NC(C)(C)C)cc4)n3)ccn2)C[C@@H]1C [Compound I-101]
,< 500 nM,CC(C)(C)CC(=O)Nc1cc(-n2cnc(Nc3ccccc3)n2)ccn1 [Compound I-102]
,> 1000 nM,c1ccc(-n2cnc(Nc3ccc(N4CCOCC4)cc3)n2)cc1 [Compound I-106]
,> 1000 nM,c1ccc(-n2cnc(Nc3ccnc(NCCN4CCOCC4)c3)n2)cc1 [Compound I-107]
,> 1000 nM,c1ccc(-n2cnc(Nc3ccc(N4CCOCC4)nc3)n2)cc1 [Compound I-134]
,> 1000 nM,CN1CCN(c2ccc(Nc3ncn(-c4ccccc4)n3)cn2)CC1 [Compound I-135]

# Second part, the molecule before the results:
Compound,Ki (c-KIT),Ki (human Src kinase)
c1ccc(-n2cnc(Nc3ccc4c(c3)OCCO4)n2)cc1 [Compound I-44],< 50 nM,500 to 1000 nM
CCOc1ccc(Nc2ncn(-c3ccccc3)n2)cc1 [Compound I-47],< 50 nM,> 1000 nM
"c1ccc(Nc2ncn(-c3ccnc(N4CCCCC4)c3)n2)cc1 [Compound I-49, phenyl-[1-(3,4,5,6-tetrahydro-2H-[1,2′]bipyridinyl-4′-yl)-1H-[1,2,4]triazol-3-yl]-amine]",,< 500 nM
c1ccc(Nc2ncn(-c3ccnc(NC4CCCCC4)c3)n2)cc1 [Compound I-50],,< 500 nM
CN(CCO)c1cc(-n2cnc(Nc3ccccc3)n2)ccn1 [Compound I-51],,> 1000 nM
c1ccc(Nc2ncn(-c3ccnc(N4CCCCCCC4)c3)n2)cc1 [Compound I-52],,< 500 nM
CN(C)CCCN(C)c1cc(-n2cnc(Nc3ccccc3)n2)ccn1 [Compound I-53],,> 1000 nM
CCN(CCO)c1cc(-n2cnc(Nc3ccccc3)n2)ccn1 [Compound I-54],,< 500 nM
CN(Cc1ccccc1)c1cc(-n2cnc(Nc3ccccc3)n2)ccn1 [Compound I-55],< 50 nM,500 to 1000 nM
CC1CCCN1c1cc(-n2cnc(Nc3ccccc3)n2)ccn1 (centres unmarked) [Compound I-56],< 50 nM,500 to 1000 nM
CN(Cc1cccnc1)c1cc(-n2cnc(Nc3ccccc3)n2)ccn1 [Compound I-57],,500 to 1000 nM
CCCN(CCO)c1cc(-n2cnc(Nc3ccccc3)n2)ccn1 [Compound I-58],< 50 nM,< 500 nM
"COCCN(C)c1cc(-n2cnc(Nc3ccccc3)n2)ccn1 [Compound I-59, (2-methoxy-ethyl)-methyl-[4-(3-phenylamino-[1,2,4]triazol-1-yl)-pyridin-2-yl]-amine]",,> 1000 nM
CCN(CC)CCNc1cc(-n2cnc(Nc3ccccc3)n2)ccn1 [Compound I-60],,> 1000 nM
CN1C(C)(C)CC(Nc2cc(-n3cnc(Nc4ccccc4)n3)ccn2)CC1(C)C [Compound I-61],,< 500 nM
"CC(C)CCN(C)c1cc(-n2cnc(Nc3ccccc3)n2)ccn1 [Compound I-62, methyl-(3-methyl-butyl)-[4-(3-phenylamino-[1,2,4]triazol-1-yl)-pyridin-2-yl]-amine]",,500 to 1000 nM
O=c1[nH]c2ccccc2n1C1CCN(c2cc(-n3cnc(Nc4ccccc4)n3)ccn2)CC1 [Compound I-63],,> 1000 nM
O=C(C1CCCO1)N1CCN(c2cc(-n3cnc(Nc4ccccc4)n3)ccn2)CC1 (centres unmarked) [Compound I-64],,> 1000 nM
CCCC(=O)N1CCCN(c2cc(-n3cnc(Nc4ccccc4)n3)ccn2)CC1 [Compound I-68],,> 1000 nM
CC(C)C(=O)N1CCCN(c2cc(-n3cnc(Nc4ccccc4)n3)ccn2)CC1 [Compound I-69],,> 1000 nM
CC(C)CC(=O)N1CCCN(c2cc(-n3cnc(Nc4ccccc4)n3)ccn2)CC1 [Compound I-70],,> 1000 nM
CCOC(=O)c1ccc(Nc2ncn(-c3ccnc(N4CCCN(C(C)=O)CC4)c3)n2)cc1 [Compound I-76],,> 1000 nM
CC(=O)N1[C@H](C)CN(c2cc(-n3cnc(Nc4ccc(NC(=O)c5cccs5)cc4)n3)ccn2)C[C@@H]1C [Compound I-80],< 50 nM,500 to 1000 nM
"CC(=O)N1[C@H](C)CN(c2cc(-n3cnc(Nc4ccc(NC(=O)c5ccco5)cc4)n3)ccn2)C[C@@H]1C [Compound I-81, Furan-2-carboxylic acid (4-{1-[2-(4-acetyl-3,5-dimethyl-piperazin-1-yl)-pyridin-4-yl]-1H-[1,2,4]triazol-3-ylamino}-phenyl)-amide]",50 to 500 nM,< 500 nM
CC(=O)N1[C@H](C)CN(c2cc(-n3cnc(Nc4ccc(NC(=O)OCC(C)C)cc4)n3)ccn2)C[C@@H]1C [Compound I-90],50 to 500 nM,500 to 1000 nM
CC(=O)N1[C@H](C)CN(c2cc(-n3cnc(Nc4ccc(NC(=O)OCC(C)(C)C)cc4)n3)ccn2)C[C@@H]1C [Compound I-91],50 to 500 nM,500 to 1000 nM
CC(=O)N1[C@H](C)CN(c2cc(-n3cnc(Nc4ccc(N5CCN(S(=O)(=O)c6ccc(C)cc6)CC5)cc4)n3)ccn2)C[C@@H]1C [Compound I-92],50 to 500 nM,500 to 1000 nM
